The subject of assay [1] is HCT116 (colorectal carcinoma). In words: MTT antiproliferation assay, HCT116. The note with it: Homo sapiens, HCT-116, read-out: IC50 (µM) HCT- 116. Format: cell-based. On the technique in general: Tetrazolium dyes change colour on reduction, which living cells bring about.
Assay [2] deals with HepG2 (hepatocellular carcinoma). In words: MTT antiproliferation assay, HepG2. Format: cell-based, human. The conditions noted are these: Homo sapiens, HepG2, read-out: IC50 (µM) HePG- 2, MTT assay, HepG2 cells.
Assay [3] relates to HeLa (cervical epithelioid carcinoma). In words: MTT antiproliferation assay, HeLa. In kind it is cell-based, human.
The subject of assay [4] is MCF7 (mammary gland breast cancer). In words: MTT antiproliferation assay, MCF7. Format: cell-based. The conditions noted are these: Homo sapiens, MCF7, read-out: IC50 (µM) MCF- 7.
The test system of assay [5] is WI- 38 (embryonic lung fibroblasts). In words: MTT assay, WI-38 fibroblasts. In kind it is cell-based. The conditions noted are these: Homo sapiens, WI-38, read-out: IC50 (µM) WI- 38.
The target in a further assay is CDK9 (Homo sapiens, UniProt P50750). In words: biochemical.
A further assay concerns the target CDK12 (Homo sapiens, UniProt Q9NYV4). In words: CDK12 inhibition assay. In kind it is biochemical.
Setting [6] is: Homo sapiens, HeLa, read-out: IC50 (µM) Hela, MTT assay, HeLa cells.

Like-named read-outs stand apart in the source and are kept apart here.

Chain of CDK9 (P50750 whole entry): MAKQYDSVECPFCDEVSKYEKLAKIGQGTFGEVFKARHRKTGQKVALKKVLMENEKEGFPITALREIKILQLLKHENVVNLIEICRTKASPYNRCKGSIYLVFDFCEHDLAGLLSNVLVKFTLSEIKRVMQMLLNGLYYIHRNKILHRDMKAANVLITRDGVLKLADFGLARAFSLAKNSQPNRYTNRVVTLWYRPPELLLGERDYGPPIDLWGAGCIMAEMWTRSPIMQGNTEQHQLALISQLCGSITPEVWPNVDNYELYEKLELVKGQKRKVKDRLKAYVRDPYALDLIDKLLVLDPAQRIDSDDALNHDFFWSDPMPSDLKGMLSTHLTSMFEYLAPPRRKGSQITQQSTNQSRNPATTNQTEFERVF
Chain of CDK9 (O60563 whole entry partner): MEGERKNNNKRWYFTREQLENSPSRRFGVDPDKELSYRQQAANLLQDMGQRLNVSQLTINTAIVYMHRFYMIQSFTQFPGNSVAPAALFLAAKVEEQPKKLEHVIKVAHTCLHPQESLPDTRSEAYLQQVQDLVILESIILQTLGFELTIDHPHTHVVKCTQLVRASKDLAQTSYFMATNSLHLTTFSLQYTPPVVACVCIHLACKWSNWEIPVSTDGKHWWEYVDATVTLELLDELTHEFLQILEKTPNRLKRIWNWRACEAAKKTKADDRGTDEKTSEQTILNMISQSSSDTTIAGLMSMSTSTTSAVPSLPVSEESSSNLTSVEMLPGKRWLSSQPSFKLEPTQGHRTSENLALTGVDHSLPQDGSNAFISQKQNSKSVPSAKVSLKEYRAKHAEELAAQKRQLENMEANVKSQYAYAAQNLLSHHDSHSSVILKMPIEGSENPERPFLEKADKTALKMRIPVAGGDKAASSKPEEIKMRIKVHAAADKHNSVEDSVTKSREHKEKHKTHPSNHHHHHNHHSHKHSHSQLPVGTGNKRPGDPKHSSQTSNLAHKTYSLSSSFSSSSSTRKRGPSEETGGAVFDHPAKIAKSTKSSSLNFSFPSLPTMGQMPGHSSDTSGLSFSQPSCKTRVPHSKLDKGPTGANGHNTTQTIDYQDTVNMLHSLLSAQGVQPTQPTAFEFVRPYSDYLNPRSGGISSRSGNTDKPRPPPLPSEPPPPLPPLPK
Chain of CDK12 (Q9NYV4 whole entry): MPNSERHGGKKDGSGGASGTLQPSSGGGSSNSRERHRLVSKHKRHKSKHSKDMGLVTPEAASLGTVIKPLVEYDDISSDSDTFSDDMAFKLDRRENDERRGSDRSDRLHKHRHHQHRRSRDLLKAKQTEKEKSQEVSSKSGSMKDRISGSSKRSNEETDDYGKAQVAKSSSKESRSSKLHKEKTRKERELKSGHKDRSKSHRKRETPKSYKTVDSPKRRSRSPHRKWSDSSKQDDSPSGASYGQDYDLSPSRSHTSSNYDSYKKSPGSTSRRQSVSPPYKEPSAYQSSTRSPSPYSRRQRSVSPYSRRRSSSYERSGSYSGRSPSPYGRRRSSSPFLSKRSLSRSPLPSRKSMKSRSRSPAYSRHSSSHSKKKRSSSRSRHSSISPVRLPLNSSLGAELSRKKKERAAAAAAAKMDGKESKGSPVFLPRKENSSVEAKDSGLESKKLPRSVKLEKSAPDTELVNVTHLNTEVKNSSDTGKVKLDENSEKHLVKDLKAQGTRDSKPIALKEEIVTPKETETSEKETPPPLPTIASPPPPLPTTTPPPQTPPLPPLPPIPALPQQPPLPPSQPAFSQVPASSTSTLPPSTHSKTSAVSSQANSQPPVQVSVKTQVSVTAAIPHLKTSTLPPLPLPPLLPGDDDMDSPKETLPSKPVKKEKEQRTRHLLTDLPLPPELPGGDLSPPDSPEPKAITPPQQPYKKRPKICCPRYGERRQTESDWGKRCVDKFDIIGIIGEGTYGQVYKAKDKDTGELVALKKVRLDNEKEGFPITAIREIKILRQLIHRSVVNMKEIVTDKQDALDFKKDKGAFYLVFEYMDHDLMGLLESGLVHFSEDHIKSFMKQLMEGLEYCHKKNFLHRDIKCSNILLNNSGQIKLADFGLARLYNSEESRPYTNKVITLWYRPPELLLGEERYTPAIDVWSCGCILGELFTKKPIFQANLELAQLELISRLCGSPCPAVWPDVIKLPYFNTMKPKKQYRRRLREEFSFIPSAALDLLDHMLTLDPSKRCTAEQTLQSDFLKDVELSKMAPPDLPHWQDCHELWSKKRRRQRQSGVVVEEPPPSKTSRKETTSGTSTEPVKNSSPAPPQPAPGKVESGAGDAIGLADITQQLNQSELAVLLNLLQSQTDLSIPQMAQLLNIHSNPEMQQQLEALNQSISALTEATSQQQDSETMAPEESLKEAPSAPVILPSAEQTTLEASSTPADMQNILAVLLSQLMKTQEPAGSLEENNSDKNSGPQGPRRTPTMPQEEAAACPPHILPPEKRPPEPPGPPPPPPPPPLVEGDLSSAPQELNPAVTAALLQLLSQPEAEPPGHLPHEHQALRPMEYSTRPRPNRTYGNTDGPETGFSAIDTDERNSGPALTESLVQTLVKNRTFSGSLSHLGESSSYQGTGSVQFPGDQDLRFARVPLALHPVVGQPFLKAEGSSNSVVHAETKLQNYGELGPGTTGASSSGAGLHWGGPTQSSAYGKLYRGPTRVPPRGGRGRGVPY
Chain of CDK12 (O75909 whole entry partner): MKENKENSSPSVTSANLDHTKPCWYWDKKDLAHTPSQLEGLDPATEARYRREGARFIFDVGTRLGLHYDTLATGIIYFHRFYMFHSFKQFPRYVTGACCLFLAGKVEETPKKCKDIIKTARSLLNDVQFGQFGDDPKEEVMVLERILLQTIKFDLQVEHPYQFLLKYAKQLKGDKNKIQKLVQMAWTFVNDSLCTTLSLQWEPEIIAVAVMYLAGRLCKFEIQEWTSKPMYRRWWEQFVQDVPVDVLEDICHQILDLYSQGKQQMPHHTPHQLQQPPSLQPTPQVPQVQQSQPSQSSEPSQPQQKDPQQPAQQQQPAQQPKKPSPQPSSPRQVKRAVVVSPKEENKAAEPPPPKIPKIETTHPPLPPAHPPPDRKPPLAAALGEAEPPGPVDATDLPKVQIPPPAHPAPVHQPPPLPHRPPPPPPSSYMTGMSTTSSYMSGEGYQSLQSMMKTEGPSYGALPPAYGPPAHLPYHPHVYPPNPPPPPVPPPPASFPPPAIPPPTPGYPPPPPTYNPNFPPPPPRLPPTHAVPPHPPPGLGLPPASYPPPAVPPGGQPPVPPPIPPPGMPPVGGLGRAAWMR

By IC50 is commonly meant the concentration that gives 50% inhibition. On to `Cc1cnc(Nc2cccc(S(N)(=O)=O)c2)nc1-n1c(C(F)(F)F)nc2ccccc21` [Compound 4k, 3-((5-methyl-4-(2-(trifluoromethyl)− 1H-benzo[d]imidazol-1-yl)pyrimidin-2-yl)amino)benzenesulfonamide], for which the IC50 in assay [1] was 48.7 ± 2.7 µM; in assay [2], 34.1 ± 2.1 µM; in assay [3] (setting [6]), 42.8 ± 2.3 µM; in assay [4], 39.8 ± 2.2 µM; in assay [5], > 50 µM; against CDK9, 5.47 ± 0.236 µM. This compound also displayed an IC50 against CDK12 of 1.21 ± 0.047 µM.

As to `COc1cccc2c1C(=O)c1c(O)c3c(c(O)c1C2=O)C[C@@](O)(C(=O)CO)C[C@@H]3O[C@H]1C[C@H](N)[C@H](O)[C@H](C)O1` [Doxorubicin, reference compound], the IC50 in assay [2] came out at 4.5 ± 0.2 µM.

Take `Cc1cnc(Nc2cccc(S(N)(=O)=O)c2)nc1-n1c(C)nc2ccccc21` [Compound 4 g, 3-((5-methyl-4-(2-methyl-1H-benzo[d]imidazol-1-yl)pyrimidin-2-yl)amino)benzenesulfonamide]: the IC50 in assay [1] was 9.34 ± 0.8 µM; in assay [2], 7.59 ± 0.6 µM; in assay [3] (setting [6]), 12.6 µM; in assay [3] (read-out: IC50 (µM) Hela, MTT assay, HeLa cells), 12.7 ± 0.9 µM; in assay [4] it was 5.08 ± 0.3 µM; in assay [5], > 50 µM. Further, the IC50 against CDK9 turned out to be 0.114 ± 0.005 µM; against CDK12, 0.071 ± 0.003 µM.

Take `CC(C)c1nc2ccccc2n1-c1nc(Nc2cccc(S(N)(=O)=O)c2)ncc1C(F)(F)F` [Compound 4p, 3-((4-(2-isopropyl-1H-benzo[d]imidazol-1-yl)− 5-(trifluoromethyl)pyrimidin-2-yl)amino)benzenesulfonamide]: the IC50 was > 50 µM in assay [1]; > 50 µM in assay [2]; > 50 µM in assay [3] (setting [6]); > 50 µM in assay [4]; 45.3 ± 2.7 µM in assay [5]; 0.153 ± 0.007 µM against CDK9. In addition, the IC50 against CDK12 worked out at 0.664 ± 0.026 µM.

As to `NS(=O)(=O)c1cccc(Nc2nccc(-n3c(C4CC4)nc4ccccc43)n2)c1` [Compound 4q, 3-((4-(2-cyclopropyl-1H-benzo[d]imidazol-1-yl)pyrimidin-2-yl)amino)benzenesulfonamide], the half-maximal inhibitory concentration (IC50) was determined as 13.7 ± 1 µM in assay [1]; 5.88 ± 0.4 µM in assay [2]; 9.71 ± 0.7 µM in assay [3] (setting [6]); 8.19 ± 0.5 µM in assay [4]; 31.4 ± 2.1 µM in assay [5]; 0.057 ± 0.002 µM against CDK9. The compound also gave an IC50 at CDK12 of 0.074 ± 0.003 µM.

As to `NS(=O)(=O)c1cccc(Nc2ncc(C(F)(F)F)c(-n3cnc4ccccc43)n2)c1` [Compound 4 d, 3-((4-(1H-benzo[d]imidazol-1-yl)− 5-(trifluoromethyl)pyrimidin-2-yl)amino)benzenesulfonamide], the IC50 is > 50 µM in assay [1]; > 50 µM in assay [2]; > 50 µM in assay [3] (setting [6]); > 50 µM in assay [4]; > 50 µM in assay [5]; 0.782 ± 0.034 µM against CDK9. The same compound gave a half-maximal inhibitory concentration (IC50) against CDK12 of 1.33 ± 0.052 µM.

As to `Cc1nc2ccccc2n1-c1ccnc(Nc2cccc(S(N)(=O)=O)c2)n1` [Compound 4e, 3-((4-(2-methyl-1H-benzo[d]imidazol-1-yl)pyrimidin-2-yl)amino)benzenesulfonamide], the IC50 in assay [1] is > 50 µM; in assay [2], > 50 µM; in assay [3] (setting [6]), > 50 µM; in assay [4], > 50 µM; in assay [5], 39 ± 2.3 µM; at CDK9, 0.409 ± 0.018 µM. On CDK12, this compound yielded a concentration for half-maximal inhibition (IC50) of 0.425 ± 0.017 µM.

As for `NS(=O)(=O)c1cccc(Nc2nccc(-n3cnc4ccccc43)n2)c1` [Compound 4a, 3-((4-(1H-benzo[d]imidazol-1-yl)pyrimidin-2-yl)amino)benzenesulfonamide], the IC50 in assay [1] was > 50 µM; in assay [2] it was > 50 µM; in assay [3] (setting [6]), > 50 µM; in assay [4] it was > 50 µM; in assay [5] it was 25.4 ± 1.8 µM; against CDK9 it was 0.396 ± 0.017 µM. Further, the IC50 against CDK12 came out at 0.295 ± 0.011 µM.

On to `NS(=O)(=O)c1cccc(Nc2ncc(C(F)(F)F)c(-n3c(C4CC4)nc4ccccc43)n2)c1` [Compound 4 t, 3-((4-(2-cyclopropyl-1H-benzo[d]imidazol-1-yl)− 5-(trifluoromethyl)pyrimidin-2-yl)amino)benzenesulfonamide], for which the IC50 in assay [1] was 38.8 ± 2.3 µM; in assay [2], 29.3 ± 1.9 µM; in assay [3] (setting [6]), 30.3 ± 1.9 µM; in assay [4], 27.8 ± 1.8 µM; in assay [5], > 50 µM; on CDK9 it was 0.121 ± 0.005 µM. The same compound displayed an IC50 at CDK12 of 0.533 ± 0.021 µM.

For the compound `Cc1nc2ccccc2n1-c1nc(Nc2cccc(S(N)(=O)=O)c2)ncc1C(F)(F)F` [Compound 4 h, 3-((4-(2-methyl-1H-benzo[d]imidazol-1-yl)− 5-(trifluoromethyl)pyrimidin-2-yl)amino)benzenesulfonamide], the IC50 is > 50 µM in assay [1]; > 50 µM in assay [2]; > 50 µM in assay [3] (setting [6]); > 50 µM in assay [4]; > 50 µM in assay [5]; 0.05 ± 0.002 µM against CDK9. On CDK12, this compound had an IC50 of 0.153 ± 0.006 µM.

Regarding `Cc1cnc(Nc2cccc(S(N)(=O)=O)c2)nc1-n1cnc2ccccc21` [Compound 4c, 3-((4-(1H-benzo[d]imidazol-1-yl)− 5-methylpyrimidin-2-yl)amino)benzenesulfonamide], the IC50 in assay [1] was > 50 µM; in assay [2] it was 44.4 ± 2.5 µM; in assay [3] (setting [6]), 49.8 ± 2.7 µM; in assay [4] it was > 50 µM; in assay [5], > 50 µM; on CDK9 it was 0.041 ± 0.002 µM. This compound had an IC50 at CDK12 of 0.14 ± 0.005 µM.

Take `NS(=O)(=O)c1cccc(Nc2nccc(-n3c(C(F)(F)F)nc4ccccc43)n2)c1` [Compound 4i, 3-((4-(2-(trifluoromethyl)− 1H-benzo[d]imidazol-1-yl)pyrimidin-2-yl)amino)benzenesulfonamide]: the concentration for half-maximal inhibition (IC50) is > 50 µM in assay [1]; 48.3 ± 2.7 µM in assay [2]; > 50 µM in assay [3] (setting [6]); > 50 µM in assay [4]; > 50 µM in assay [5]; 1.09 ± 0.047 µM against CDK9. The compound further had an IC50 against CDK12 of 0.365 ± 0.014 µM.

Turning to `CC(C)c1nc2ccccc2n1-c1ccnc(Nc2cccc(S(N)(=O)=O)c2)n1` [Compound 4 m, 3-((4-(2-isopropyl-1H-benzo[d]imidazol-1-yl)pyrimidin-2-yl)amino)benzenesulfonamide], the IC50 in assay [1] is 7.19 ± 0.5 µM; in assay [2] it was 3.56 ± 0.2 µM; in assay [3] (setting [6]) it was 6.39 ± 0.4 µM; in assay [4], 2.18 ± 0.1 µM; in assay [5], > 50 µM; at CDK9 it was 0.04 ± 0.002 µM. At CDK12, this compound displayed an IC50 of 0.06 ± 0.002 µM.

In the case of `NS(=O)(=O)c1cccc(Nc2ncc(C(F)(F)F)c(-n3c(C(F)(F)F)nc4ccccc43)n2)c1` [Compound 4 l, 3-((5-(trifluoromethyl)− 4-(2-(trifluoromethyl)− 1H-benzo[d]imidazol-1-yl)pyrimidin-2-yl)amino)benzenesulfonamide], the IC50 in assay [1] was > 50 µM; in assay [2] it was > 50 µM; in assay [3] (setting [6]) it was > 50 µM; in assay [4] it was > 50 µM; in assay [5], 18.3 ± 1.3 µM; against CDK9, 1.67 ± 0.072 µM. For the same compound, the IC50 against CDK12 worked out at 0.899 ± 0.035 µM.

In the case of `NS(=O)(=O)c1cccc(Nc2ncc(F)c(-n3c(C4CC4)nc4ccccc43)n2)c1` [Compound 4r, 3-((4-(2-cyclopropyl-1H-benzo[d]imidazol-1-yl)− 5-fluoropyrimidin-2-yl)amino)benzenesulfonamide], the IC50 was 29.8 ± 1.9 µM in assay [1]; 11.4 ± 0.9 µM in assay [2]; 26.5 ± 1.8 µM in assay [3] (setting [6]); 16.2 ± 1.4 µM in assay [4]; > 50 µM in assay [5]; 0.242 ± 0.01 µM on CDK9. The same compound displayed an IC50 on CDK12 of 0.104 ± 0.001 µM.

The values above are taken from PMC12102023 (Saudi Pharmaceutical Journal : SPJ, 2025).
